Data on 1 molecule can be found in US8426448B2, “1,5-diphenyl-pyrrolidin-2-one compounds as CB-1 ligands” (Eli Lilly and Company, priority 2008, dated 2013).

One data set deals with T1, CYP2C9 (Homo sapiens, UniProt P11712).
T1 construct: pooled, mixed gender, human liver microsomes; from tissue; host or cells: pooled, mixed gender human liver microsomes
The experiment in a line: Human CYP fingerprinting, sulfaphenazole inhibition. It counts as in vitro ADME. Particulars: 4 μM, human liver microsomes, 30 min, 5 μM sulfaphenazole. The method, then:
CYP fingerprinting is well established technique and is used as an indication of potential risk of drug-drug interactions in the pharmaceutical sciences. Compounds of the present invention may be assayed by well known methods, essentially as follows: Compounds are incubated at 37° C. at a final concentration of 4 μM with pooled, mixed gender, human liver microsomes and 1 mM NADPH (Nicotine Adenine Dinucleotide Phosphate) (final conc.) for 0 and 30 min. without any CYP inhibitor and with each CYP inhibitor in separate incubations for 30 min. Each inhibitor is specific for an individual cytochrome P450. The specific inhibitors used for CYPs 2C9, 2D6 and 3A were sulfaphenazole, quinidine and ketoconazole, respectively. Ketoconazole (CYP3A) is made up at 25 mM in DMSO and then diluted in buffer to a final concentration of 10 μM. Quinidine (CYP2D6) is made up at 5 mM in 50/50 acetonitrile/water and then diluted in buffer to a final concentration of 10 μM. Sulfaphenazole (CYP2C9) is made up at 100 mM in DMSO and then diluted in buffer to a final concentration of 5 μM. Samples are analyzed by LC-MS in positive or negative electrospray mode using a Waters Acquity Ultra Performance LC coupled to a MicroMass Q-T of-2 mass spectrometer.
Data are analyzed using MetaboLynx™ version 4.1. […]
In general terms: Liver microsomes are a subcellular fraction often used to study metabolism.

The next data set deals with hCB-1 (Homo sapiens, UniProt P21554). The experiment in a line: hCB1-CHO agonist mode SPA GTP-γ-35S binding assay. The data set is classed as biochemical. Details: purchased Applied Cell Sciences, Rockville, Md; host or cells: CHO cell membranes. The following applies: inverse agonism, read-out: hCB-1 SPA GTPγS CHO Membrane Agonist Relative EC50 inverse. The method, then:
Compounds of the present invention may be tested for functional activity at the CB-1 and CB-2 receptors in both agonist and antagonist modes using SPA (Scintillation Proximity Assay) based GTP-γ-^35S binding assays. All assay components are prepared in assay buffer (20 mM HEPES, 100 mM NaCl, 5 mM MgCl2, pH 7.4) at room temperature. Semi-log dilutions of test compound are prepared in assay buffer containing BSA (0.125% final conc.) for the agonist mode assays. For the antagonist mode assays, test compounds are prepared in the same manner but also include an 80% efficacious dose of a full agonist (methanandamide). GTP-γ^35S binding for the antagonist assay may be measured in a 96 well format using a modification of an antibody capture technique previously described. (DeLapp, N W, et al. (1999) J Pharmacol Exp Ther 289:946-955.) The CB-2 receptor agonist activity may be measured using a similar method using hCB2-Sf9 membranes. The CB-1 receptor agonist activity may be measured using a whole membrane capture technique using hCB1-CHO membranes. All incubations are done at room temperature.
hCB1-CHO membrane, GDP (1 μM final conc.), and saponin (10 μg/mL final conc., Sigma, St Louis, Mo.) are combined and prepared on ice as for the antagonist assays, above. Diluted test compounds, GTP-γ-^35S ([…] final conc.) and membranes are combined in the assay plate and incubated for 30 min. Then 1 mg/well Wheatgerm Agglutinin SPA beads (GE Healthcare, Piscataway, N.J.) are added, plates are sealed and vortexed and incubate for 1 hr. before spinning and counting in the same fashion as for the antagonist assays, above.
Data are analyzed as follows: Background is subtracted from all wells. Percent agonist efficacy is determine by normalizing agonist/inverse agonist dose response data to the response obtained for a full agonist (methanandamide). Percent antagonist inhibition is calculated by first normalizing the data to the signal generated by a saturating concentration of the full agonist (methanandamide). Then the data are analyzed using a 4-parameter logistic reduced fit (Activity Base™ and XLFit3™ from IDBS, Emeryville, Calif.). Kb values are determined using a modification of the Cheng-Prusoff relationship: Kb=IC50/(1+[agonist]/EC50), where “IC50” is determined from a four parameter fit of displacement curves, “[agonist]” is the agonist challenge concentration (nM), and “EC50” is determined from a four parameter fit of a full agonist concentration response curve (Cheng and Prusoff 1973). Mean Kb values are calculated as a mean of at least three independent determinations±standard error of the mean (SEM). […]
For orientation: GTPγS is a poorly hydrolysed GTP analogue; its binding reports G protein activation.

A short description of the next data set: Dog oral bioavailability. It counts as in vivo. Particulars: plasma; fasted female beagle dog; IV 0.25 mg/kg, PO 1 mg/kg; mean±s.d, n=2; based on AUC0-∞. The method, then: (§1) Cohorts of three or four 250-450 gram male Sprague-Dawley rats or approximately 10 kg Beagle dogs (female or male) are used. […] Dogs are administered i.v. by cannulated cephalic vein and blood collections are by jugular vein. Animals are first dosed at 0.25 mg/kg i.v. and blood samples (0.2 mL) are then collected using EDTA as an anticoagulant at 0.0830, 0.25, 0.50, 1, 2, 4, 8, 12, 24, 48, 72, 96, and 120 hours. Next after at least two days and after 18-24 hours fasting, the animals are dosed at 1.0 mg/kg by oral gavage. During the course of a study the total of blood (ml) collected is not to exceed 1% of total body weight in grams. Should larger blood volumes be required, the sampled blood volume is replace with heparinized whole blood from a donor animal. When using a cross-over study design, rats receive a volume of heparinized whole blood following the final sample of each study day approximately equal to that removed during study.
(§2) Compound plasma concentrations are measured by LC/MS/MS assays. Data are then analyzed using standard non-compartmental pharmacokinetic analysis. Oral bioavailability is calculated as: (AUC0-infinity,oral/AUC0-infinity,i.v.)×(Dose,i.v./Dose,oral)×100%

Another data set in a line: Rat oral bioavailability. It counts as in vivo. Particulars: Sprague-Dawley, plasma, fasted male SD rats, IV 0.25 mg/kg (20% Pharmasolve, 10% HPBCD, pH 3), PO 1 mg/kg (1% CMC, 0.5% SLS, 0.5% AF), mean±s.d, n=3, based on AUC0-∞. The method, then: as §1, §2

Counter-ions that a name gives are not always drawn.

Sequence of hCB-1 (P21554 whole entry): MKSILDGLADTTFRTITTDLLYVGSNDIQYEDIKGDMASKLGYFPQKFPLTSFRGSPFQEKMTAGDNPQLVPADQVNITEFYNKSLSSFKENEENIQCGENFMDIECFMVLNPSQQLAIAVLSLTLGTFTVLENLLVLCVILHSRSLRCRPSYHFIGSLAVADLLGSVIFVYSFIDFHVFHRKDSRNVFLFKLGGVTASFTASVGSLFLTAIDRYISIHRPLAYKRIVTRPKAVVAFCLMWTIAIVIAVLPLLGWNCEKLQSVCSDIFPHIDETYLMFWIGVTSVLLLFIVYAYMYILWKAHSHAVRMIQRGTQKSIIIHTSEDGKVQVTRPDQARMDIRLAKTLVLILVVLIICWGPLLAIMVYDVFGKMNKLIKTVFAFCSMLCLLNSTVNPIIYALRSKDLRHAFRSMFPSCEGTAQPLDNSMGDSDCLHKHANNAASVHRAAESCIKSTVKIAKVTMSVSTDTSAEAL
T1 sequence (P11712 whole entry): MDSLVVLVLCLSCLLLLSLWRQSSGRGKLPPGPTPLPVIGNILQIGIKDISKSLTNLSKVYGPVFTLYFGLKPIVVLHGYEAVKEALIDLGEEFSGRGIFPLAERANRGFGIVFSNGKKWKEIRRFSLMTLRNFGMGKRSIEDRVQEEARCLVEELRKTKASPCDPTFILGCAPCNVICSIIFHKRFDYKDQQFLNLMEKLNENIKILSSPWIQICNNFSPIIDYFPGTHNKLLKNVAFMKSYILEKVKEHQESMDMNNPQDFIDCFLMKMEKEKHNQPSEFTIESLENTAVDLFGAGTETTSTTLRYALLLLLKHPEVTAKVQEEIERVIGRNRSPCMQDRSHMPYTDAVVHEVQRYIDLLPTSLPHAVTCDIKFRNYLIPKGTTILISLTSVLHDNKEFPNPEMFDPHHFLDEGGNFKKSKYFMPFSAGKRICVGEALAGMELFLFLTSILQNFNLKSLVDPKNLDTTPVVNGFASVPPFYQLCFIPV

`CC(C)(N[C@@H]1C[C@H](c2cccc(C(F)(F)F)c2)N(c2ccc(OC(F)(F)F)cc2)C1=O)c1cccc(C(F)(F)F)n1` [28 HCl salt, (3R,5R)-3-[1-methyl-1-(6-trifluoromethyl-pyridin-2-yl)-ethylamino]-1-(4-trifluoromethoxy-phenyl)-5-(3-trifluoromethyl-phenyl)-pyrrolidin-2-one]: at CYP2C9, the “Risk of Drug Drug Interaction (DDI) CYP2C9” value is recorded as “low (a reduction in metabolite peak area of less than 30% (relative to the uninhibited control incubation) receives a designation of low risk of Drug Drug Interaction (DDI))”. The EC50 (commonly the concentration that produces a half-maximal response) at hCB-1 was determined as 1.27 nM. Besides, the bioavailability (commonly the share of a dose that reaches the circulation, judged against a reference dose that is usually intravenous) came to 32 ± 18% in the data set “Dog oral bioavailability” and 40 ± 6% in the data set “Rat oral bioavailability”.
